Measured values as given in patent US9357779B2 (priority 2010, dated 2016).

Columns and labels:
[1] = for log P [a]: acidic range, pH 2.7, 0.1% aqueous formic acid/acetonitrile; for log P [a][d]: pH 2.7, major isomer; for log P [a][e]: pH 2.7, minor isomer
Description: (§1) Calibration was carried out using unbranched alkan-2-ones (having from 3 to 16 carbon atoms) with known log P values (the log P values were determined by the retention times using linear interpolation between two successive alkanones).

Phytophthora infestans = format: in vivo; conditions: tomato plants, protective, active compound concentration 500 ppm, evaluation 7 days after inoculation
[2] = pH 2.7, log P [a], acidic range, pH 2.7, 0.1% aqueous formic acid/acetonitrile

Description for physchem: as §1

| SMILES | log P [a] [1] | other results |
| --- | --- | --- |
| Cc1cc(C(F)(F)F)nn1CC(=O)N1CCC(c2nc(CCC(=O)c3ccccc3Cl)cs2)CC1 [Compound I-21] | 3.6^[a]; | – |
| Cc1cc(C(F)(F)F)nn1CC(=O)N1CCC(c2nc(C#CC(=O)c3ccc(Cl)cc3Cl)cs2)CC1 [Compound I-6] | 4.31^[a] | – |
| Cc1cc(C(F)(F)F)nn1CC(=O)N1CCC(c2nc(C(=O)Cc3ccccc3)cs2)CC1 [Compound I-16] | 3.36^[a] | efficacy (Phytophthora infestans): 80% |
| C#Cc1csc(C2CCN(C(=O)Cn3nc(C(F)(F)F)cc3C)CC2)n1 [XX-1, 1-[4-(4-Ethynyl-1,3-thiazol-2-yl)piperidin-1-yl]-2-[5-methyl-3-(trifluoromethyl)-1H-pyrazol-1-yl]ethanone] | – | chromatographic logP (physchem; pH 2.7): 2.61 |
| Cc1cc(C(F)(F)F)nn1CC(=O)N1CCC(c2nc(C(=O)Cc3ccccc3Br)cs2)CC1 [Compound I-13] | 3.67^[a]; | – |
| Cc1cc(C(F)(F)F)nn1CC(=O)N1CCC(c2nc(C#CC(=O)c3cccs3)cs2)CC1 [Compound I-9] | 3.29^[a] | – |
| Cc1cc(C(F)(F)F)nn1CC(=O)N1CCC(c2nc(C#CC(=O)c3ccccc3)cs2)CC1 [Compound I-1] | 3.58^[a] | – |
| O=C(/C=C/c1csc(C2CCN(C(=O)Cn3nc(C(F)F)cc3C(F)F)CC2)n1)c1ccccc1 [Compound I-37] | 3.31^[a]; | efficacy (Phytophthora infestans): 95% |
| CC(C)(C)OC(=O)N1CCC(c2nc(C(O)CCc3ccccc3)cs2)CC1 (stereo not shown) [XVI-1, tert-Butyl 4-[4-(1-hydroxy-3-phenylpropyl)-1,3-thiazol-2-yl]piperidine-1-carboxylate] | – | chromatographic logP (physchem; pH 2.7): 3.79 |
| Cc1cc(C(F)(F)F)nn1CC(=O)N1CCC(c2nc(C#CC(=O)c3ccccc3Cl)cs2)CC1 [Compound I-5] | 3.79^[a] | – |
| Cc1cc(C(F)(F)F)nn1CC(=O)N1CCC(c2nc(C(=O)CC(C)(C)c3ccccc3)cs2)CC1 [Compound I-15] | 4.08^[a] | – |
| Cc1cc(C(F)(F)F)nn1CC(=O)N1CCC(c2nc(C(=O)Cc3cccc4ccccc34)cs2)CC1 [Compound I-18] | 3.87^[a] | – |
| Cc1cc(C(F)(F)F)nn1CC(=O)N1CCC(c2nc(C(=O)CCc3ccccc3)cs2)CC1 [Compound I-14, 1-[2-(1-{[5-Methyl-3-(trifluoromethyl)-1H-pyrazol-1-yl]acetyl}piperidin-4-yl)-1,3-thiazol-4-yl]-3-phenylpropan-1-one] | – | chromatographic logP (physchem; [2]): 3.64 |
| Cc1cc(C(F)(F)F)nn1CC(=O)N1CCC(c2nc(C#CC(=O)c3ccco3)cs2)CC1 [Compound I-10] | 2.92^[a] | – |
| CC(C)(C)OC(=O)N1CCC(c2nc(/C=C/C(=O)c3c(F)cccc3F)cs2)CC1 [IV-3, tert-Butyl 4-[4-[(1E)-3-(2,6-difluorophenyl)-3-oxoprop-1-en-1-yl]-1,3-thiazol-2-yl]piperidine-1-carboxylate] | – | chromatographic logP (physchem; pH 2.7): 4.3 |
| COc1ccccc1C(=O)C#Cc1csc(C2CCN(C(=O)Cn3nc(C(F)(F)F)cc3C)CC2)n1 [Compound I-2] | 3.35^[a]; | – |
| CC(C)(C)C(=O)/C=C/c1csc(C2CCN(C(=O)Cn3nc(C(F)F)cc3C(F)F)CC2)n1 [Compound I-47] | 3.45^[a] | efficacy (Phytophthora infestans): 94% |
| CON(C)C(=O)c1csc(C2CCN(C(=O)OC(C)(C)C)CC2)n1 [Compound V-1, tert-Butyl 4-{4-[methoxy(methyl)carbamoyl]-1,3-thiazol-2-yl}piperidine-1-carboxylate] | – | chromatographic logP (physchem; pH 2.7): 2.4 |
| CCOc1ccccc1C(=O)C#Cc1csc(C2CCN(C(=O)Cn3nc(C(F)(F)F)cc3C)CC2)n1 [Compound I-11, 1-(2-Ethoxyphenyl)-3-[2-(1-{[5-methyl-3-(trifluoromethyl)-1H-pyrazol-1-yl]acetyl}piperidin-4-yl)-1,3-thiazol-4-yl]prop-2-yn-1-one] | – | chromatographic logP (physchem; pH 2.7): 3.78; chromatographic logP (physchem; [2]): 3.76 |
| Cc1cc(C(F)(F)F)nn1CC(=O)N1CCC(c2nc(C(=O)/C=C/c3c(F)cccc3F)cs2)CC1 [Compound I-12, (2E)-3-(2,6-Difluorophenyl)-1-[2-(1-{[5-methyl-3-(trifluoromethyl)-1H-pyrazol-1-yl]acetyl}piperidin-4-yl)-1,3-thiazol-4-yl]prop-2-en-1-one] | – | chromatographic logP (physchem; [2]): 3.83 |

| SMILES | log P [a] [1] | other results |
| --- | --- | --- |
| Cc1cc(C(F)(F)F)nn1CC(=O)N1CCC(c2nc(C#CC(=O)C3CCCCC3)cs2)CC1 [Compound I-4] | 4.15^[a] | – |
| Cc1cc(C(F)(F)F)nn1CC(=O)N1CCC(c2nc(C(=O)CC3CCCCC3)cs2)CC1 [Compound I-17] | 4.13^[a]; | – |
| O=C(/C=C/c1c(F)cccc1F)c1csc(C2CCN(C(=O)Cn3nc(C(F)F)cc3C(F)F)CC2)n1 [Compound I-62] | 3.68^[a]; | – |
| COc1ccc(C(=O)C#Cc2csc(C3CCN(C(=O)Cn4nc(C(F)(F)F)cc4C)CC3)n2)cc1 [Compound I-7] | 3.54^[a] | – |
| C#CCOc1ccccc1C(C=Cc1csc(C2CCN(C(=O)Cn3nc(C(F)F)cc3C(F)F)CC2)n1)=NO (mixture of isomers) [Compound I-64] | – | log P [a][d] [1]: 3.08^[a][d];; log P [a][e] [1]: 3.30^[a][e] |
| Cc1cccc(C)c1C(=O)/C=C/c1csc(C2CCN(C(=O)Cn3nc(C(F)F)cc3C(F)F)CC2)n1 [Compound I-63] | 3.65^[a]; | – |
| COc1ccc(C(=O)/C=C/c2csc(C3CCN(C(=O)Cn4nc(C(F)F)cc4C(F)F)CC3)n2)c(F)c1 [Compound I-48] | 3.45^[a] | efficacy (Phytophthora infestans): 94% |
| CO/N=C(/Cc1cccc(C)c1C)c1csc(C2CCN(C(=O)Cn3nc(C(F)F)cc3C(F)F)CC2)n1 [Compound I-61] | 4.33^[a] | efficacy (Phytophthora infestans): 95% |
| O=C(/C=C/c1csc(C2CCN(C(=O)Cn3nc(C(F)F)cc3C(F)F)CC2)n1)c1ccc(F)cc1 [Compound I-40] | 3.43^[a] | – |
| Cc1cc(C(F)(F)F)nn1CC(=O)N1CCC(c2nc(C#CC(=O)C(C)(C)C)cs2)CC1 [Compound I-8] | 3.68^[a] | – |
| Cc1ccc(C)c(NC(=O)N2CCC(c3nc(/C=C/C(=O)c4c(F)cccc4F)cs3)CC2)c1 [Compound I-23] | 3.56^[a] | efficacy (Phytophthora infestans): 70% |
| Cc1cccc(CC(=O)c2csc(C3CCN(C(=O)Cn4nc(C(F)F)cc4C(F)F)CC3)n2)c1C [Compound I-59] | 3.71^[a] | – |
| COc1ccccc1C(=O)CCc1csc(C2CCN(C(=O)Cn3nc(C(F)(F)F)cc3C)CC2)n1 [Compound I-19] | 3.34^[a] | – |
| Cc1cc(C(F)(F)F)nn1CC(=O)N1CCC(c2nc(C(Cl)=CC(=O)c3ccccc3)cs2)CC1 (mixture of isomers) [Compound I-26] | 4^[a] | – |
| COc1cccc(OC)c1C(=O)/C=C/c1csc(C2CCN(C(=O)Cn3nc(C(F)F)cc3C(F)F)CC2)n1 [Compound I-39] | 3.04^[a] | efficacy (Phytophthora infestans): 90% |
| COc1ccccc1C(=O)C=C(Cl)c1csc(C2CCN(C(=O)Cn3nc(C(F)(F)F)cc3C)CC2)n1 (mixture of isomers) [Compound I-65] | – | efficacy (Phytophthora infestans): 93%; log P [a][d] [1]: 3.96^[a][d];; log P [a][e] [1]: 3.79^[a][e] |
| Cc1cc(C(F)(F)F)nn1CC(=O)N1CCC(c2nc(C#CC(=O)c3cccc4ccccc34)cs2)CC1 [Compound I-3] | 4.25^[a] | – |
| O=C(/C=C/c1csc(C2CCN(C(=O)Cn3nc(C(F)F)cc3C(F)F)CC2)n1)c1cccc(F)c1 [Compound I-41] | 3.48^[a] | efficacy (Phytophthora infestans): 95% |
| Cc1cccc(C(=O)/C=C/c2csc(C3CCN(C(=O)Cn4nc(C(F)F)cc4C(F)F)CC3)n2)c1 [Compound I-38] | 3.64^[a]; | efficacy (Phytophthora infestans): 95% |
